Here are results for six compounds from patent US20210386814A1, “METHODS AND COMPOUND FOR THE TREATMENT OF MALARIA” (priority 2020, published 2021).

SMILES strings stand for the structures. Converted amounts (≈) assume the structure as drawn. Like-named read-outs stand apart in the source and are kept apart here.

One test concerns P. falciparum culture. As to conditions: cited from earlier work.
The subject of test [1] is RF laboratory strain of HIV-1. The experiment in a line: antiviral evaluation in CEM-SS cell line against HIV-1 RF. The test is classed as cell-based. The following applies: CEM-SS cells, HIV-1 RF strain. As for the experimental part: The purified fraction 90I may yield a fifty percent effective concentration (EC50) of 0.020 ug/ml. At the same time, there was no discernible drug induced toxicity in this study (50% inhibitory concentration ([…]) was greater than the high-test concentration of 100 ug/ml).

For a further test, the system named is gamma interferon. The experiment in a line: in vitro gamma interferon production. In kind it is cell-based. The source says:
Moreover, the increase in gamma interferon may have a far greater impact on reversing the course of HIV-1 infection. […] Therefore, further evaluation of 90I in malaria cell-lines may provide the opportunity to find new clinical uses for an established HIV antiprotease patented drug. Also, the purpose of this approach is to lower the costs and shorten the timeframe of product development.

Test [2] addresses P. falciparum lactate dehydrogenase (Plasmodium falciparum, UniProt Q27743). The following applies: cited from earlier work.
For test [3], the target named is P. falciparum aspartic protease plasmepsin II (Plasmodium falciparum, UniProt P46925). The following applies: read-out: 1050, plasmepsin II; cited from earlier work.
P. falciparum aspartic protease plasmepsin II, sequence (P46925 125-453): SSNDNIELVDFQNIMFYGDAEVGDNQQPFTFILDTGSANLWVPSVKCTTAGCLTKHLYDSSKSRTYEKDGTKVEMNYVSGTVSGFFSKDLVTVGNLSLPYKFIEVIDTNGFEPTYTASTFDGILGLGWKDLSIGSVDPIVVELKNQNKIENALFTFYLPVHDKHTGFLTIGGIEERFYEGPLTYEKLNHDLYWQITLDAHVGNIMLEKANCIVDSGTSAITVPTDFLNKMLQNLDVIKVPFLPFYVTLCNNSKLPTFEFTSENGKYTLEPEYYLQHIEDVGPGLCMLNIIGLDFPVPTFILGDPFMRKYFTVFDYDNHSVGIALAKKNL

P. falciparum lactate dehydrogenase, sequence (Q27743 whole entry): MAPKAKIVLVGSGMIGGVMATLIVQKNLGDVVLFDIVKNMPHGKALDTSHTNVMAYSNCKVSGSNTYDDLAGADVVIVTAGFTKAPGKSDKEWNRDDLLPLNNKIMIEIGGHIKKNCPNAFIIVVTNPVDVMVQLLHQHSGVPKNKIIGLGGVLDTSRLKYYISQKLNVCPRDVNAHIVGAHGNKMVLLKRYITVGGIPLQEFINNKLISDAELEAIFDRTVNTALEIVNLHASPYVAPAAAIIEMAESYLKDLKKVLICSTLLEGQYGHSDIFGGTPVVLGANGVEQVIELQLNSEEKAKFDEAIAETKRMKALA

Regarding `CC(C)C[C@H](NC(=O)[C@H]1O[C@@H]1C(=O)O)C(=O)NCCCCN=C(N)N` (relative stereo) [E64, trans-Epoxysuccinyl-L-leucylamido(4-guanidino)butane], the “effects on P. falciparum culture” value in the test on P. falciparum culture is listed as “blocked parasite release”.

For the compound `O=C(OCCOCCOC(=O)c1ccccc1)c1ccccc1` [90I, diethylene glycol dibenzoate], the “therapeutic index (T1=IC50/EC50)” value in test [1] was “greater than 5000”. Moreover, in test [1] (Human immunodeficiency virus 1, read-out: fifty percent effective concentration (EC50)), the EC50 was determined as 0.02 mg/L (≈ 0.0636 µM). Moreover, the “production of gamma interferon” value in the test with gamma interferon is on record as “increased production of gamma interferon”.

Regarding `CC(=O)N[C@@H](CC(C)C)C(=O)N[C@@H](CC(C)C)C(=O)N[C@H](C=O)CCCNC(=N)N` [Leupeptin, N-acetyl-L-leucyl-L-leucy-L-argininal], the “effects on P. falciparum culture” value in the test with P. falciparum culture (10 μg/ml) was “All three of these effects were also seen”.

Take `CCCC[C@@H](C=O)NC(=O)[C@H](CC(C)C)NC(=O)OCc1ccccc1` [calpeptin]: in the test with P. falciparum culture (1 μM), the “effects on P. falciparum culture” value was “All three of these effects were also seen”.

On to `CCN(CC)CCCC(C)Nc1ccnc2cc(Cl)ccc12` (centres unmarked) [chloroquine], for which the “inhibition of lactate dehydrogenase” value in test [2] is given as “weak inhibitor”.

Regarding `Cc1cccc(C)c1OCC(=O)N[C@@H](Cc1ccccc1)[C@@H](O)C[C@H](Cc1ccccc1)NC(=O)[C@H](C(C)C)N1CCCNC1=O` [lopinavir], the IC50 in test [3] was 2.7 µM.
